Measurements taken from PMC11628855 (Acta Pharmaceutica Sinica. B, 2024).

Biological target: T1, GacS (12–166)-His (Pseudomonas aeruginosa, UniProt G3XD98)
T1 sequence (G3XD98 12-166): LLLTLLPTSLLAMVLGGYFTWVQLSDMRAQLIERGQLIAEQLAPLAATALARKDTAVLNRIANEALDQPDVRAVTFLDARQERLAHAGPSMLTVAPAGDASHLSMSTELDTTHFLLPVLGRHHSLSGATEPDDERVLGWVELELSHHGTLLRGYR
Assay: microscale thermophoresis
Type: binding

CCCCCCNC(=O)CNc1nc2ccc(OC)cc2s1 [SN12, N-Hexyl-2-((6-methoxybenzo[d]thiazol-2-yl)amino)acetamide]
Kd: 12.8 ± 0.68 µM
